# Results from US12552792B2, “Solid forms of an FGFR inhibitor and processes for preparing the same” (Incyte Corporation, priority 2018, dated 2026).
# Test system: patients with myeloid/lymphoid neoplasms with FGFR1 rearrangement
# Assay: Phase 2 clinical study in myeloid/lymphoid neoplasms with FGFR1 rearrangement
# Format: in vivo, human
# Settings: for evaluable patients who achieved clinical response: preliminary
# Description: All potential subjects must have documentation of an 8p11 translocation known to activate FGFR1 through the site's own cytogenetics laboratory. Once documentation has been provided, the subject undergoes screening to meet the rest of the inclusion/exclusion criteria.
# One cycle is defined as 21 days of treatment.
# The study population is subjects with myeloid/lymphoid neoplasms with FGFR1 rearrangement. […] In addition, only subjects who are not candidates for stem cell transplantation, or have relapsed after stem cell transplantation and […] lymphocyte infusion and who have progressed and are not candidates for other disease-modifying therapies are eligible for the study.
# Additional key exclusion criteria include current evidence of clinically significant corneal disorder/keratopathy (including but not limited to bullous/band keratopathy, corneal abrasion, inflammation/ulceration, and keratoconjunctivitis, etc) or retinal disorder (including but not limited to macular/retinal degeneration, diabetic retinopathy, retinal detachment, etc) as confirmed by ophthalmologic examination.
# Study visits may include sample collection for chemistry, hematology, coagulation, lipid panel, endocrine monitoring, and urinalysis testing. […] A sample of bone marrow aspirate or peripheral blood is sent to the central laboratory for confirmation of FGFR1 rearrangement as well as a central pathology laboratory for analysis. In addition, sites provide slides and/or digitized images of bone marrow aspirate at baseline and at the time of achieving response and send them to a central pathology group for review.
# Once the subject's eligibility is confirmed through the site's laboratory, screening may begin. […] Safety follow-up is 30 days (+5 days) after the last dose of the study drug. In addition, subjects are followed for overall survival after stopping treatment with study drug. Study participation is expected to average approximately 6 months per individual subject.
compound,measurement,setting,value
"CCN1C(=O)N(c2c(F)c(OC)cc(OC)c2F)Cc2cnc3[nH]c(CN4CCOCC4)cc3c21 [Compound 1, 3-(2,6-difluoro-3,5-dimethoxyphenyl)-1-ethyl-8-(morpholin-4-ylmethyl)-1,3,4,7-tetrahydro-2H-pyrrolo[3′,2′:5,6]pyrido[4,3-d]pyrimidin-2-one]",evaluable patients who achieved clinical response,"13 evaluable patients, 13.5 mg QD",85%
same,"Treatment discontinued, reason: Adverse Event, number of patients",14 patients treated,2
same,"TRAE alopecia, %","14 patients, 13.5 mg QD",29%
same,"TRAE diarrhea, %","14 patients, 13.5 mg QD",36%
same,"TRAE dyspepsia, %","14 patients, 13.5 mg QD",14%
same,"TRAE fatigue, %","14 patients, 13.5 mg QD",14%
same,"TRAE hyperphosphatemia, %","14 patients, 13.5 mg QD",64%
same,"TRAE increased blood alkaline phosphatase, %","14 patients, 13.5 mg QD",21%
same,"TRAE stomatitis, %","14 patients, 13.5 mg QD",14%
same,patients with grade 3 TRAEs,"14 patients, 13.5 mg QD",Three
same,tolerability (in words),"14 patients, 13.5 mg QD",generally well tolerated
same,patients with fatal TEAEs,"14 patients, unrelated to treatment",Two
same,evaluable patients who achieved clinical response,"of 13 evaluable patients, 13.5 mg QD",11 patients
same,"response of single patient (PET scan, cytogenetics)","person, myeloproliferation and TLL, ZMYM2-FGFR1 fusion, 13.5 mg daily 2 weeks on, 1 week off, at 4 months (beginning of cycle 6)",complete cytogenetic remission and complete lymph node remission
